# Patent US20060229224A1, “Bleaching composition” (priority 2003, published 2006)
# Several values for one entry are separate records, joined by “and”; a condition that tells them apart may be missing. Equal entries are not always repeated. Entries after “also recorded” stand apart in the source; their conditions may differ. Where two headings read alike, the source gives them in different places.
# Tests used:
# [1] = test system: 3T3; assay: In Vitro 3T3 NRU Photo-toxicity Test; conditions: for Result: photo-toxicity classification
# Experimental: (§1) Photo-bleaches were tested for photo-toxicity using the Photo-toxicity-In Vitro 3T3 NRU Photo-toxicity Test” of the Commission Directive 2000/33/EC of 25 Apr.
# [2] = Photo-bleaching of palm oil stained cotton cloths in wash followed by weatherometer irradiation; conditions: staining relative to clean white cloth
# Experimental: Palm oil stained cloths (Brazilian) were prepared as follows. Palm oil 0.06 g was added deposited onto individual woven white cotton cloth samples weighing 1.2 g each. The cloth samples were allowed to age for 1 hour before being washed. Each wash consisted of four stained cloths, 200 ml of 40° C. water and 1 g of Persil Colour-washing powder (purchased in UK, zeolite based). The wash liquor was agitated for 20 minutes then the clothes rinsed in cold water, wrung and irradiated in a weatherometer for 18 minutes. The weatherometer is designed to simulate outside line drying and was set to give 42 W/m2 in the UVA&B.
# The washes were duplicated but with the addition of 9 ppm of the photo-bleach to the wash solution, corresponding to 0.18% by weight on the powder formulation.
# After the wash/irradiation procedure the staining of the clothes relative to clean white cloth was measured on a reflectometer and expressed as the deltaE value.
# [3] = test system: 3T3
# Experimental: as §1
# [4] = Table 3, PIF quoted to 2 significant figures
# [5] = Example 2, same procedure as Example 1, 9 ppm photo-bleach
# [6] = Example 1, 9 ppm photo-bleach in wash solution, 40° C. wash, irradiated 18 minutes in weatherometer
Compound,"PIF [1, 4]",Result ([1]; Table 3),also measured
"CC1=CC(=O)c2ccccc2C1=O [Vitamin K3, 2-methyl-1,4-napthoquinone]",2.3,Non-photo-toxic (PIF<5 or MPE<0.1),"photo-toxicity classification [1]: not photo-toxic; also recorded: non-photo-toxic; PIF ([1]; experiments repeated twice more): 1.9 and 1.6; Average deltaE [2, 5]: 2.9"
CC(C)(O)C(=O)c1ccc(OCCO)cc1 [2-hydroxy-4′-hydroxyethoxy-2-methylpropiophenone],>120,Photo-toxic (PIF≧5 or MPE≧0.1),–
"Cc1cc(C)c(C(=O)c2ccccc2)c(C)c1 [2,4,6-trimethylbenzophenone]",28,Photo-toxic (PIF≧5 or MPE≧0.1),"Average deltaE [2, 6]: 16.2"
O=C(c1ccccc1)C1(O)CCCCC1 [1-hydroxycyclohexylphenyl ketone],–,–,PIF [3]: >7.5
CN(C)CCCN1c2ccccc2Sc2ccc(Cl)cc21 [Chlorpromazine],43,Photo-toxic (PIF≧5 or MPE≧0.1),–
CC1(C)[C@@H]2CC[C@@]1(C)C(=O)C2=O [Camphoroquinone],–,–,"Average deltaE [2, 5]: 23.5"
2-sulphate anthraquinone,–,–,PIF [3]: >170
CCc1ccc2c(c1)C(=O)c1ccccc1C2=O [2-ethylanthraquinone],>1000,Photo-toxic (PIF≧5 or MPE≧0.1),"Average deltaE [2, 6]: 2.5"
"Cc1cc(C)c(C(=O)P(=O)(C(=O)c2c(C)cc(C)cc2C)c2ccccc2)c(C)c1 [Phenylbis(2,4,6-trimethylbenzoyl)-phosphine oxide]",>12,Photo-toxic (PIF≧5 or MPE≧0.1),–
